Laboratory results published in US20050107293A1, “Protein modification and maintenance molecules” (priority 2001, published 2005).

What was measured:
[1] = greater than progesterone; cited from earlier work
[2] = system: liver C3A cells; assay: Microarray analysis of SEQ ID NO:49 expression in steroid-treated C3A cells; type: cell-based, human; conditions: for differential expression of SEQ ID NO:49: liver C3A cells treated with one steroid, microarray
Source text: The human C3A cell line is a clonal derivative of HepG2/C3 and has been established as an in vitro model of the mature human liver (Mickelson et al. (1995) Hepatology 22:866-875; Nagendra et al. (1997) Am J Physiol 272:G408-G416). […] These experiments indicate that SEQ ID NO:49 is useful in diagnostic assays for liver diseases and as a potential biological marker and therapeutic agent in the treatment of liver diseases and disorders.

[3] = system: C3A cells; assay: Microarray analysis of SEQ ID NO:59 expression in C3A cells treated with progesterone or budenoside; type: cell-based, human; conditions: early confluent C3A cells, 10 μM, at each time point (1, 3, and 6 hours), versus untreated C3A cells
Source text: The human C3A cell line is a clonal derivative of HepG2/C3 (hepatoma cell line, isolated from a person with liver tumor), which was selected for strong contact inhibition of growth. The use of a clonal population enhances the reproducibility of the cells. C3A cells have many characteristics of primary human hepatocytes in culture: i) expression of insulin receptor and insulin-like growth factor II receptor; ii) secretion of a high ratio of serum albumin compared with α-fetoprotein iii) conversion of ammonia to urea and glutamine; iv) metabolism of aromatic amino acids; and v) proliferation in glucose-free and insulin-free medium. The C3A cell line is now well established as an in vitro model of the mature human liver (Mickelson et al. (1995) Hepatology 22:866-875; Nagendra et al. (1997) Am J Physiol 272:G408-G416). Early Confluent C3A cells were treated with progesterone or budenoside at 1, 10, and 100 μM for 1, 3, and 6 hours. The treated cells were compared to untreated early confluent C3A cells. […] Therefore, SEQ ID NO:59 may be useful in monitoring of, and diagnostic assays for steroid hormone-induced responses.

Row | Molecule | pharmacological activity relative to progesterone [1] | decrease in expression of SEQ ID NO:5 ([2]; early confluent C3A cells treated for 1, 3, or 6 hours, at a minimum of two out of the three time points) | differential expression of SEQ ID NO:49 [2] | expression of SEQ ID NO:59 [3]
1 | 6α-methyl-17-hydroxyprogesterone [Medroxyprogesterone] | about 15 times |  |  | 
2 | C[C@H]1C[C@H]2[C@@H]3CCC4=CC(=O)C=C[C@]4(C)[C@@]3(Cl)[C@@H](O)C[C@]2(C)[C@@]1(O)C(=O)CO [beclomethasone] |  | at least a two-fold decrease | differential expression | 
3 | CC(=O)[C@H]1CC[C@H]2[C@@H]3CCC4=CC(=O)CC[C@]4(C)[C@H]3CC[C@]12C [progesterone] |  |  | differential expression | decreased by at least two-fold
